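In this assay, cells in 96-well plates receive the compound at five concentrations for 48 hours. Endpoints are linearly interpolated between the surrounding concentrations. Here, GI50 denotes the concentration required for 50% inhibition of growth.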 Calls of active or inactive are those of the source. Cut-off read from the data, not from the text of the source: active = GI50 up to about 1.1 µM and inactive = higher.
Tests used:
Assay in all cases: NCI tumour cell line growth inhibition, 48 h
786-0 = test system: 786-0
ACHN = test system: ACHN
EKVX = test system: EKVX
HCC 2998 = test system: HCC 2998
HL-60 = test system: HL-60
HOP-92 = test system: HOP-92
KM12 = test system: KM12
OVCAR-3 = test system: OVCAR-3
OVCAR-4 = test system: OVCAR-4
OVCAR-8 = test system: OVCAR-8
SF-268 = test system: SF-268
SK-MEL-5 = test system: SK-MEL-5
SNB-19 = test system: SNB-19
SW-620 = test system: SW-620
TK-10 = test system: TK-10
UACC-62 = test system: UACC-62
HT-29 = test system: HT-29
RXF 393 = test system: RXF 393
UO-31 = test system: UO-31

Measured: GI50

O=C(NCCCOC(=O)CCCCCCCCC(=O)OCCCNC(=O)NC(=O)c1c[nH]c(=O)[nH]c1=O)NC(=O)c1c[nH]c(=O)[nH]c1=O
inactive: 786-0 > 100 µM | ACHN > 100 µM | EKVX > 100 µM | HCC 2998 > 100 µM | HL-60 > 100 µM | HOP-92 > 100 µM | KM12 > 100 µM | OVCAR-3 > 100 µM | OVCAR-4 > 100 µM | OVCAR-8 > 100 µM | SF-268 > 100 µM | SK-MEL-5 > 100 µM | SNB-19 > 100 µM | SW-620 > 100 µM | TK-10 > 100 µM | UACC-62 > 100 µM

CCOC(=O)C(=C=C=C(c1ccccc1)c1ccccc1)C(=O)OCC
inactive: 786-0 17.8 µM | ACHN 21.4 µM | EKVX 26.7 µM | HCC 2998 25 µM | HL-60 15.4 µM | HOP-92 15.1 µM | HT-29 19.4 µM | KM12 19.6 µM | OVCAR-3 15.5 µM | OVCAR-4 18.3 µM | OVCAR-8 21.9 µM | RXF 393 10.7 µM | SF-268 25.8 µM | SK-MEL-5 > 10 µM | SNB-19 21.5 µM | SW-620 21.5 µM | TK-10 16 µM | UACC-62 18.5 µM | UO-31 18.6 µM

C/C(Cl)=N\OC(=O)Nc1ccccc1C(F)(F)F
inactive: 786-0 17.9 µM | ACHN 18.1 µM | EKVX 19.9 µM | HCC 2998 > 100 µM | HL-60 3.5 µM | HOP-92 6.61 µM | HT-29 18.9 µM | KM12 > 100 µM | OVCAR-3 15.8 µM | OVCAR-4 13.8 µM | OVCAR-8 38.9 µM | SF-268 > 100 µM | SK-MEL-5 > 100 µM | SNB-19 > 100 µM | SW-620 17.9 µM | TK-10 15.4 µM | UO-31 64.9 µM

COc1ccc(C(C2=C(O)COC2=O)c2cc3c(cc2O)OCO3)cc1OC (configuration not stated)
inactive: 786-0 > 100 µM | ACHN > 100 µM | EKVX > 100 µM | HCC 2998 > 100 µM | HL-60 > 100 µM | HOP-92 > 100 µM | HT-29 > 100 µM | KM12 > 100 µM | OVCAR-3 > 100 µM | OVCAR-4 > 100 µM | OVCAR-8 > 100 µM | RXF 393 > 100 µM | SF-268 > 100 µM | SK-MEL-5 > 100 µM | SNB-19 > 100 µM | SW-620 > 100 µM | TK-10 > 100 µM | UACC-62 > 100 µM | UO-31 > 100 µM

O=C(c1ccc2ccccc2c1O)N1CCCCC1
inactive: 786-0 > 100 µM | ACHN > 100 µM | EKVX 61.4 µM | HCC 2998 > 100 µM | HL-60 68.9 µM | HOP-92 78.9 µM | HT-29 > 100 µM | KM12 > 100 µM | OVCAR-4 > 100 µM | OVCAR-8 68.2 µM | RXF 393 > 100 µM | SF-268 > 100 µM | SK-MEL-5 34 µM | SNB-19 > 100 µM | SW-620 > 100 µM | TK-10 > 100 µM | UACC-62 > 100 µM | UO-31 > 100 µM

COC(=O)C1CCCN1C(=O)OC(C)(C)C (configuration not stated)
inactive: 786-0 > 100 µM | ACHN > 100 µM | EKVX > 100 µM | HCC 2998 > 100 µM | HT-29 > 100 µM | KM12 > 100 µM | OVCAR-3 > 100 µM | OVCAR-4 > 100 µM | RXF 393 > 100 µM | SF-268 65.3 µM | SK-MEL-5 > 100 µM | SNB-19 > 100 µM | SW-620 > 100 µM | TK-10 > 100 µM | UACC-62 > 100 µM | UO-31 > 100 µM

FC(F)(F)C1(Cl)C(Cl)(c2ccccc2)C1(Cl)c1ccccc1 (configuration not stated)
inactive: 786-0 15.8 µM | ACHN 16.1 µM | EKVX 16.3 µM | HCC 2998 16.9 µM | HL-60 17.7 µM | HOP-92 12.3 µM | HT-29 14.8 µM | KM12 15.6 µM | OVCAR-3 14.9 µM | OVCAR-4 14.2 µM | OVCAR-8 18 µM | RXF 393 13.9 µM | SF-268 17.3 µM | SK-MEL-5 14 µM | SNB-19 18.5 µM | SW-620 15.7 µM | TK-10 18.6 µM | UACC-62 15.8 µM | UO-31 14.8 µM

O=C(O)c1cc(Sc2ccc([N+](=O)[O-])c(C(=O)O)c2)ccc1[N+](=O)[O-]
inactive: 786-0 > 100 µM | ACHN > 100 µM | EKVX > 100 µM | HL-60 > 100 µM | HOP-92 > 100 µM | HT-29 > 100 µM | KM12 > 100 µM | OVCAR-3 > 100 µM | OVCAR-4 > 100 µM | OVCAR-8 > 100 µM | RXF 393 > 100 µM | SF-268 > 100 µM | SK-MEL-5 > 100 µM | SNB-19 > 100 µM | SW-620 > 100 µM | TK-10 > 100 µM | UACC-62 > 100 µM | UO-31 > 100 µM

CCOC(=O)c1csc(NC(=O)C(C)N2CCCC2)n1 (configuration not stated)
inactive: ACHN > 100 µM | HCC 2998 > 100 µM | HOP-92 > 100 µM | HT-29 > 100 µM | KM12 > 100 µM | OVCAR-3 > 100 µM | OVCAR-4 > 100 µM | OVCAR-8 > 100 µM | RXF 393 > 100 µM | SK-MEL-5 > 100 µM | SNB-19 > 100 µM | SW-620 > 100 µM | TK-10 > 100 µM | UACC-62 > 100 µM | UO-31 > 100 µM

O=c1[nH]c(C2CCCCC2)nc2ccc(Cl)cc12
inactive: 786-0 > 100 µM | ACHN > 100 µM | EKVX > 100 µM | HCC 2998 > 100 µM | HOP-92 > 100 µM | HT-29 > 100 µM | KM12 > 100 µM | OVCAR-3 > 100 µM | OVCAR-8 > 100 µM | RXF 393 > 100 µM | SF-268 > 100 µM | SK-MEL-5 > 100 µM | SNB-19 > 100 µM | SW-620 > 100 µM | TK-10 > 100 µM | UACC-62 > 100 µM | UO-31 93.3 µM

N=C(N)SCCc1ccncc1
inactive: 786-0 > 100 µM | ACHN > 100 µM | EKVX > 100 µM | HL-60 > 100 µM | HOP-92 > 100 µM | HT-29 > 100 µM | KM12 > 100 µM | OVCAR-3 > 100 µM | OVCAR-4 > 100 µM | OVCAR-8 > 100 µM | RXF 393 > 100 µM | SF-268 > 100 µM | SK-MEL-5 > 100 µM | SNB-19 > 100 µM | SW-620 > 100 µM | TK-10 > 100 µM | UACC-62 > 100 µM | UO-31 > 100 µM

Source: ChEMBL document CHEMBL1201862, “PubChem BioAssay data set” (2004)
